Data as given in the supplement of paper PMC12325586.

Test system: MIA PaCa-2
[1] = OFD1 knockdown: no (no doxycycline)
[2] = OFD1 knockdown: yes (Tet-on shOFD1, 100 ng/mL doxycycline)

| SMILES | IC50 cell viability [1] | IC50 cell viability [2] |
| --- | --- | --- |
| CCc1c2c(nc3ccc(OC(=O)N4CCC(N5CCCCC5)CC4)cc13)-c1cc3c(c(=O)n1C2)COC(=O)[C@]3(O)CC [S1198] | 24.5 µM | 20 µM |
| COc1c(C)c2c(c(O)c1C/C=C(\C)CCC(=O)OCCN1CCOCC1)C(=O)OC2 [S1501] | 11.9 µM | 11.5 µM |
| Cc1nnc(C(C)C)n1[C@H]1C[C@H]2CC[C@@H](C1)N2CC[C@H](NC(=O)C1CCC(F)(F)CC1)c1ccccc1 [S2003] | 11 µM | 10.3 µM |
| COc1cc(OC)c(/C=C/S(=O)(=O)Cc2ccc(OC)c(NCC(=O)O)c2)c(OC)c1 [S1362] | 2.53 µM | 2.01 µM |
| Nc1nc(Cl)nc2c1ncn2[C@@H]1O[C@H](CO)[C@@H](O)[C@@H]1F [S1218] | 0.55 µM | 0.53 µM |
| CC(C)(C)NCC(O)c1ccc(O)c(CO)c1 (stereo not drawn) [S2507] | 4.57 µM | 4.1 µM |
| Cc1ccc(C(=O)Nc2ccc(CN3CCN(C)CC3)c(C(F)(F)F)c2)cc1C#Cc1cnc2cccnn12 [S1490] | 3.75 µM | 3.86 µM |
| CC[C@]1(O)C[C@H]2CN(CCc3c([nH]c4ccccc34)[C@@](C(=O)OC)(c3cc4c(cc3OC)N(C=O)[C@H]3[C@@](O)(C(=O)OC)[C@H](OC(C)=O)[C@]5(CC)C=CCN6CC[C@]43[C@@H]65)C2)C1 [S1241] | 20.9 µM | 21.3 µM |
| CCN(CCO)CCCOc1ccc2c(Nc3cc(CC(=O)Nc4cccc(F)c4)[nH]n3)ncnc2c1 [S1147] | 16.7 µM | 15.1 µM |
| CC[C@@H]1C(=O)N(C)c2cnc(Nc3ccc(C(=O)N[C@H]4CC[C@H](N5CCN(CC6CC6)CC5)CC4)cc3OC)nc2N1C(C)C [S2235] | 13.3 µM | 12.1 µM |
| Cc1ccc(-c2cc(C(F)(F)F)nn2-c2ccc(S(N)(=O)=O)cc2)cc1 [S1261] | 25.2 µM | 24.3 µM |
| C=CC(=O)N1CCC[C@@H](n2nc(-c3ccc(Oc4ccccc4)cc3)c3c(N)ncnc32)C1 [S2680] | 53.1 µM | 52.4 µM |
| CN(Cc1cnc2nc(N)nc(N)c2n1)c1ccc(C(=O)N[C@@H](CCC(=O)O)C(=O)O)cc1 [S1210] | 0.47 µM | 0.39 µM |
| CCC1(c2ccc(N)cc2)CCC(=O)NC1=O (stereo not drawn) [S1672] | 23.6 µM | 22.2 µM |
| CNC(=O)c1cc(Oc2ccc(NC(=O)Nc3ccc(Cl)c(C(F)(F)F)c3)c(F)c2)ccn1 [S1178] | 1.56 µM | 1.28 µM |
| Nc1cccc2c1CN(C1CCC(=O)NC1=O)C2=O (stereo not drawn) [S1029] | 44 µM | 42.9 µM |
| CNCc1ccc(-c2[nH]c3cc(F)cc4c3c2CCNC4=O)cc1 [S1098] | 31.8 µM | 18.9 µM |
| Cn1cnc([N+](=O)[O-])c1Sc1ncnc2[nH]cnc12 [S1721] | 28.1 µM | 29.2 µM |
| NC(=O)NO [S1896] | 4.41 µM | 4.33 µM |
| Cc1ccc(C(=O)N(CCCN)[C@@H](c2nc3cc(Cl)ccc3c(=O)n2Cc2ccccc2)C(C)C)cc1 [S1452] | 1.44 µM | 1.4 µM |
| Cc1ccc(NC(=O)c2ccc(CN3CCN(C)CC3)cc2)cc1Nc1nccc(-c2cccnc2)n1 [S1026] | 15 µM | 14.8 µM |
| O=C(O)c1ccc2c(c1)nc(Nc1cccc(Cl)c1)c1ccncc12 [S2248] | 4.02 µM | 3.69 µM |

| SMILES | IC50 cell viability [1] | IC50 cell viability [2] |
| --- | --- | --- |
| CC(C)(C)c1cc(NC(=O)Nc2ccc(-c3cn4c(n3)sc3cc(OCCN5CCOCC5)ccc34)cc2)no1 [S1526] | 13.8 µM | 14.4 µM |
| Cn1nnc2c(C(N)=O)ncn2c1=O [S1237] | 12 µM | 11.3 µM |
| CCOc1cc2ncc(C#N)c(Nc3ccc(F)c(Cl)c3)c2cc1NC(=O)/C=C/CN(C)C [S1392] | 53.8 µM | 56.4 µM |
| CC(C)OC(=O)C(C(=O)OC(C)C)=C1SC=CS1 [S1137] | 38.1 µM | 36.1 µM |
| CO[C@H]1C[C@@H]2CC[C@@H](C)[C@@](O)(O2)C(=O)C(=O)N2CCCC[C@H]2C(=O)O[C@H]([C@H](C)C[C@@H]2CC[C@@H](O)[C@H](OC)C2)CC(=O)[C@H](C)/C=C(\C)[C@@H](O)[C@@H](OC)C(=O)[C@H](C)C[C@H](C)/C=C/C=C/C=C/1C [S1039] | 0.56 µM | 0.54 µM |
| Nc1nc(Cl)nc2c1ncn2[C@H]1C[C@H](O)[C@@H](CO)O1 [S1199] | 55.1 µM | 49.9 µM |
| Nc1ccn([C@@H]2O[C@H](CO)[C@@H](O)C2(F)F)c(=O)n1 [S1714] | 3.36 µM | 3.16 µM |
| Cc1nc(=O)c2cc(CN(C)c3ccc(C(=O)N[C@@H](CCC(=O)O)C(=O)O)s3)ccc2[nH]1 [S1192] | 15.8 µM | 14.1 µM |
| C=C1C[C@@H]2[C@H](CC[C@]3(C)C(=O)CC[C@@H]23)[C@@]2(C)C=CC(=O)C=C12 [S1196] | 53.5 µM | 50.2 µM |
| Cc1cnc(Nc2ccc(OCCN3CCCC3)cc2)nc1Nc1cccc(S(=O)(=O)NC(C)(C)C)c1 [S2736] | 14.5 µM | 13.5 µM |
| O=c1[nH]c(=O)n(C2CCCO2)cc1F (stereo not drawn) [S1300] | 48.4 µM | 43.1 µM |
| CC1(C)CCC(CN2CCN(c3ccc(C(=O)NS(=O)(=O)c4ccc(NCC5CCOCC5)c([N+](=O)[O-])c4)c(Oc4cnc5[nH]ccc5c4)c3)CC2)=C(c2ccc(Cl)cc2)C1 [S8048] | 13.1 µM | 12.1 µM |
| CN(N=O)C(=O)NC1C(O)OC(CO)C(O)C1O (stereo not drawn) [S1312] | 30.1 µM | 30.4 µM |
| Cn1cc(C2=C(c3cn(C4CCN(Cc5ccccn5)CC4)c4ccccc34)C(=O)NC2=O)c2ccccc21 [S1055] | 13.8 µM | 12.5 µM |
| Cc1cn(-c2cc(NC(=O)c3ccc(C)c(Nc4nccc(-c5cccnc5)n4)c3)cc(C(F)(F)F)c2)cn1 [S1033] | 18.9 µM | 17.3 µM |
| COc1cc2nccc(Oc3ccc(NC(=O)Nc4cc(C)on4)c(Cl)c3)c2cc1OC [S1207] | 10 µM | 7.5 µM |
| COc1ncc(-c2ccc3nccc(-c4ccnnc4)c3c2)cc1NS(=O)(=O)c1ccc(F)cc1F [S2658] | 8.98 µM | 8.74 µM |
| O=C(/C=C/c1cccc(S(=O)(=O)Nc2ccccc2)c1)NO [S1085] | 3.67 µM | 3.5 µM |
| COc1cc(Nc2nc3ccccc3nc2NS(=O)(=O)c2ccc(NC(=O)c3ccc(C)c(OC)c3)cc2)cc(OC)c1 [S1523] | 47.6 µM | 45.5 µM |
| CCc1ccc(CCOc2ccc(CC3SC(=O)NC3=O)cc2)nc1 (stereo not drawn) [S2590] | 2.72 µM | 3.16 µM |
| CC1(C)CCC(c2ccc(Cl)cc2)=C(CN2CCN(c3ccc(C(=O)NS(=O)(=O)c4ccc(N[C@H](CCN5CCOCC5)CSc5ccccc5)c(S(=O)(=O)C(F)(F)F)c4)cc3)CC2)C1 [S1001] | 18.7 µM | 19 µM |
| CN1CCN(CCOc2cc(OC3CCOCC3)c3c(Nc4c(Cl)ccc5c4OCO5)ncnc3c2)CC1 [S1006] | 7.48 µM | 8.13 µM |
